Measurements from patent US20230210999A1, “TARGETED PROTEASE DEGRADATION (TED) PLATFORM” (EUBULUS BIOTHERAPEUTICS INC., priority 2020, published 2023).
Where two headings read alike, the source gives them in different places.

Assays:
Type in all cases: cell-based, human
PC-3 = assay: Cell proliferation experiment, PC-3; settings: read-out: Inhibitory activity IC50 on PC-3
Procedure: (§1) Reagents: RPMI-1640 medium, McCoy's 5A medium, IMDM medium, MEM medium, L-15 medium, fetal bovine serum. Penicillin-Streptomycin double antibody, trypsin, etc., 2-mercaptoethanol, NEAA, pyruvate, etc.
(§2) The cells were cultured in conventional ways, and the cells should be passed at least 2 generations before plating. Cells at the logarithmic growth phase were collected, prepared into single cell suspensions and counted. The concentration of cells was adjusted to the desired concentration, and cells were inoculated into a 96-well cell culture plate at 100 μl per well. 100 μL of complete medium of the test compound were added to each well, set up 2 duplicate wells for each concentration, and diluted with a 5-fold gradient, and continued to culture for 72 h. All cells were subjected to IC50 test for corresponding samples. The experimental results are shown in Test Example 4.
(§3) The fluorescence intensity of each well was detected using the Alarm blue method, and IC50 was calculated.
(§4) IC50 was calculated according to the following formula:
(§5) Y=Max+(Min−Max)/[1+(X/IC50)×Slope]
(§6) wherein Min, Max and Slope represent the minimum, maximum and slope respectively.

NCIH82 cells = assay: Cell proliferation experiment, NCI-H82; settings: read-out: Inhibitory activity IC50 on NCI-H82
Summary of the method: (§7)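 IC50 values derive from a four-parameter logistic fit of Alamar blue fluorescence. Cells in logarithmic growth, plated in 96-well format, are treated for 72 h with compound diluted 5-fold serially, two wells per concentration.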

MDA-MB-231 cells = assay: Cell proliferation experiment, MDA-MB-231
Procedure: as §1, §2, §3, §4, §5, §6

MV4;11 cells = assay: Cell proliferation experiment (Alamar blue, 72 h), MV4;11; settings: read-out: Inhibitory activity IC50 on MV4;11
Summary of the method: as §7

[1] = Homo sapiens, NCI-H82, NCI-H82 cells
[2] = Homo sapiens, MDA-MB-231, MDA-MB-231 cells, read-out: Inhibitory activity IC50 on MDA-MB-231
[3] = Homo sapiens, MV4-11, MV4;11 cells

Question: How did the IC50 (PC-3; Homo sapiens, PC-3, PC-3 cells) turn out when `CNC(=O)c1ccccc1Nc1nc(Nc2ccc(N3CCN(C(=O)NCCOCCNCC(=O)Nc4cccc5c4CN(C4CCC(=O)NC4=O)C5=O)CC3)cc2)ncc1Cl` (stereo not drawn) [UB-181068] was run?
Answer: Its IC50 is greater than 1000 nM.

Question: And the IC50 (NCIH82 cells; [1])?
Answer: Its IC50 is greater than 1000 nM.

Question: What about the IC50 (MDA-MB-231 cells; [2]) of the same compound?
Answer: The IC50 was greater than 1000 nM.

Question: What about the IC50 (MV4;11 cells; [3]) of the same compound?
Answer: The IC50 was 10 to 100 nM.

Question: What does the source list for `CNC(=O)c1ccccc1Nc1nc(Nc2ccc(N3CCN(C(=O)NCCOCCNCCOCCC(=O)Nc4ccc5c(c4)CN(C4CCC(=O)NC4=O)C5=O)CC3)cc2)ncc1Cl` (stereo not drawn) [UB-181050]?
Answer: IC50 (PC-3; Homo sapiens, PC-3, PC-3 cells): > 1000 nM; IC50 (NCIH82 cells; [1]): 100 to 1000 nM; IC50 (MDA-MB-231 cells; [2]): > 1000 nM; IC50 (MV4;11 cells; [3]): 100 to 1000 nM

Question: `CNC(=O)c1ccccc1Nc1nc(Nc2ccc(N3CCN(C(=O)N[C@H]4CC[C@@H](NCCCOCC#Cc5cccc6c5CN(C5CCC(=O)NC5=O)C6=O)CC4)CC3)cc2)ncc1Cl` (stereo partly drawn) [UB-181091] was tested. Which IC50 (PC-3; Homo sapiens, PC-3, PC-3 cells) did it give?
Answer: Its IC50 is greater than 1000 nM.

Question: And the IC50 (NCIH82 cells; [1])?
Answer: The IC50 was 100 to 1000 nM.

Question: What about the IC50 (MDA-MB-231 cells; [2]) of the same compound?
Answer: The IC50 was 100 to 1000 nM.

Question: What about the IC50 (MV4;11 cells; [3]) of the same compound?
Answer: The IC50 was less than 10 nM.

Question: With `CNC(=O)c1ccccc1Nc1nc(Nc2ccc(N3CCN(C(=O)NCCOCC(COCCOCCC(=O)Nc4cccc5c4CN(C4CCC(=O)NC4=O)C5=O)NC)CC3)cc2)ncc1Cl` (stereo not drawn) [UB-181088] as the compound, how does the IC50 (PC-3; Homo sapiens, PC-3, PC-3 cells) read?
Answer: The IC50 was greater than 1000 nM.

Question: What about the IC50 (NCIH82 cells; [1]) of the same compound?
Answer: Its IC50 is greater than 1000 nM.

Question: What about the IC50 (MDA-MB-231 cells; Homo sapiens, MDA-MB-231, read-out: Inhibitory activity IC50 on MDA-MB-231) of the same compound?
Answer: Its IC50 is greater than 1000 nM.

Question: What about the IC50 (MV4;11 cells; [3]) of the same compound?
Answer: The IC50 was less than 10 nM.

Question: Which results are given for `CNC(=O)c1ccccc1Nc1nc(Nc2ccc(N3CCN(C(=O)N[C@H]4CC[C@@H](NCCOCCC#Cc5cccc6c5CN(C5CCC(=O)NC5=O)C6=O)CC4)CC3)cc2)ncc1C#N` (stereo partly drawn) [UB-181112]?
Answer: IC50 (PC-3; Homo sapiens, PC-3, PC-3 cells): > 1000 nM; IC50 (NCIH82 cells; [1]): 100 to 1000 nM; IC50 (MDA-MB-231 cells; [2]): > 1000 nM; IC50 (MV4;11 cells; [3]): < 10 nM

Question: Which results are given for `CNC(=O)c1ccccc1Nc1nc(Nc2ccc(N3CCN(C(=O)N[C@H]4CC[C@@H](NCCCOCC#Cc5ccc6c(c5)CN(C5CCC(=O)NC5=O)C6=O)CC4)CC3)cc2)ncc1Cl` (stereo partly drawn) [UB-181096]?
Answer: IC50 (PC-3; Homo sapiens, PC-3, PC-3 cells): 100 to 1000 nM; IC50 (NCIH82 cells; [1]): 100 to 1000 nM; IC50 (MDA-MB-231 cells; [2]): 100 to 1000 nM; IC50 (MV4;11 cells; [3]): < 10 nM

Question: Which results are given for `O=C1CCC(N2Cc3c(NC(=O)CNCCCOCCOCCNC(=O)[C@]4(Cc5cccc(Nc6nccs6)n5)CC[C@@H](Oc5cccc(Cl)c5F)CC4)cccc3C2=O)C(=O)N1` (stereo partly drawn) [UB-181035]?
Answer: IC50 (PC-3; Homo sapiens, PC-3, PC-3 cells): > 1000 nM; IC50 (NCIH82 cells; [1]): > 1000 nM; IC50 (MDA-MB-231 cells; [2]): > 1000 nM; IC50 (MV4;11 cells; [3]): 100 to 1000 nM

Question: What does the source list for `O=C1CCC(N2Cc3cc(NC(=O)CCNCCCOCCCCNC(=O)c4ccc(Nc5ncc6c(n5)-c5ccc(Cl)cc5C(c5c(F)cccc5F)=NC6)cc4)ccc3C2=O)C(=O)N1` (stereo not drawn) [UB-181033]?
Answer: IC50 (PC-3; Homo sapiens, PC-3, PC-3 cells): > 1000 nM; IC50 (NCIH82 cells; [1]): > 1000 nM; IC50 (MDA-MB-231 cells; [2]): > 1000 nM; IC50 (MV4;11 cells; [3]): 100 to 1000 nM

Question: Which results are given for `CNC(=O)c1ccccc1Nc1nc(Nc2ccc(N3CCN(C(=O)NCCOCCNCCOCCC(=O)Nc4cccc5c4CN(C4CCC(=O)NC4=O)C5=O)CC3)cc2)ncc1Cl` (stereo not drawn) [UB-181051]?
Answer: IC50 (PC-3; Homo sapiens, PC-3, PC-3 cells): > 1000 nM; IC50 (NCIH82 cells; [1]): > 1000 nM; IC50 (MDA-MB-231 cells; [2]): > 1000 nM; IC50 (MV4;11 cells; [3]): 10 to 100 nM

Question: Which results are given for `O=C1CCC(N2Cc3cc(NC(=O)CCNCCOCCOCCNC(=O)[C@]4(Cc5cccc(Nc6nccs6)n5)CC[C@@H](Oc5cccc(Cl)c5F)CC4)ccc3C2=O)C(=O)N1` (stereo partly drawn) [UB-181031]?
Answer: IC50 (PC-3; Homo sapiens, PC-3, PC-3 cells): > 1000 nM; IC50 (NCIH82 cells; [1]): > 1000 nM; IC50 (MDA-MB-231 cells; [2]): > 1000 nM; IC50 (MV4;11 cells; [3]): > 1000 nM

Question: Which IC50 (PC-3; Homo sapiens, PC-3, PC-3 cells) does the source give for `O=C1CCC(N2Cc3cc(NC(=O)CNCCCOCCOCCNC(=O)[C@]4(Cc5cccc(Nc6nccs6)n5)CC[C@@H](Oc5cccc(Cl)c5F)CC4)ccc3C2=O)C(=O)N1` (stereo partly drawn) [UB-181032] here?
Answer: Its IC50 is greater than 1000 nM.

Question: What about the IC50 (NCIH82 cells; [1]) of the same compound?
Answer: The IC50 was greater than 1000 nM.

Question: What about the IC50 (MDA-MB-231 cells; [2]) of the same compound?
Answer: The IC50 was greater than 1000 nM.

Question: And the IC50 (MV4;11 cells; [3])?
Answer: The IC50 was 100 to 1000 nM.

Question: Which results are given for `CNC(=O)c1ccccc1Nc1nc(Nc2ccc(N3CCN(C(=O)NCCNCCCC(=O)Nc4cccc5c4CN(C4CCC(=O)NC4=O)C5=O)CC3)cc2)ncc1Cl` (stereo not drawn) [UB-181055]?
Answer: IC50 (PC-3; Homo sapiens, PC-3, PC-3 cells): > 1000 nM; IC50 (NCIH82 cells; [1]): 100 to 1000 nM; IC50 (MDA-MB-231 cells; [2]): > 1000 nM; IC50 (MV4;11 cells; [3]): 10 to 100 nM

Question: How did the IC50 (PC-3; Homo sapiens, PC-3, PC-3 cells) turn out when `O=C1CCC(N2Cc3c(NC(=O)COCCOCCOCC(O)Cn4cc(-c5ccc(Nc6ncc7c(n6)-c6ccc(Cl)cc6C(c6c(F)cccc6F)=NC7)cc5)nn4)cccc3C2=O)C(=O)N1` (stereo not drawn) [UB-181072] was run?
Answer: The IC50 was greater than 1000 nM.

Question: And the IC50 (NCIH82 cells; [1])?
Answer: The IC50 was greater than 1000 nM.

Question: What about the IC50 (MDA-MB-231 cells; [2]) of the same compound?
Answer: The IC50 was greater than 1000 nM.

Question: What about the IC50 (MV4;11 cells; [3]) of the same compound?
Answer: The IC50 was 100 to 1000 nM.

Question: Which results are given for `CNC(=O)c1ccccc1Nc1nc(Nc2ccc(N3CCN(C(=O)NCCNCCOCC(=O)Nc4cccc5c4CN(C4CCC(=O)NC4=O)C5=O)CC3)cc2)ncc1Cl` (stereo not drawn) [UB-181057]?
Answer: IC50 (PC-3; Homo sapiens, PC-3, PC-3 cells): > 1000 nM; IC50 (NCIH82 cells; [1]): 100 to 1000 nM; IC50 (MDA-MB-231 cells; [2]): > 1000 nM; IC50 (MV4;11 cells; [3]): < 10 nM

Question: How did the IC50 (PC-3; PC-3 cells) turn out when `CNC(=O)c1ccccc1Nc1nc(Nc2ccc(N3CCN(C(=O)N[C@H]4CC[C@@H](NCCOCCC#Cc5cccc6c5CN(C5CCC(=O)NC5=O)C6=O)CC4)CC3)cc2)ncc1Cl` (stereo partly drawn) [UB-181119] was run?
Answer: Its IC50 is 10 to 100 nM.

Question: What about the IC50 (NCIH82 cells; NCI-H82 cells) of the same compound?
Answer: The IC50 was 100 to 1000 nM.

Question: What about the IC50 (MDA-MB-231 cells; MDA-MB-231 cells, read-out: Inhibitory activity IC50 on MDA-MB-231) of the same compound?
Answer: The IC50 was 100 to 1000 nM.

Question: What about the IC50 (MV4;11 cells; MV4;11 cells) of the same compound?
Answer: The IC50 was less than 10 nM.
